Measured values taken from article PMC10712727, “Safety, Tolerability, and Pharmacokinetics of Senaparib, a Novel PARP1/2 Inhibitor, in Chinese Patients With Advanced Solid Tumors: A Phase I Trial” (The Oncologist, 2023).

Tested on: patients with advanced solid tumors
Test: Safety: treatment-emergent and senaparib-related adverse events graded per NCI CTCAE v4.03
Type: in vivo
Method: This phase I, open-label, multicenter, dose-escalation, and dose-expansion study was conducted at three national clinical institutions in China. […] At baseline, all patients enrolled in the dose-escalation phase had to have at least one evaluable lesion, and those in the dose-expansion period had to have at least one measurable lesion, according to Response Evaluation Criteria in Solid Tumors version 1.1 (RECIST v1.1).[16] Entry to the dose-expansion cohort required the presence of a BRCA mutation, with the exception of patients with ovarian carcinoma, fallopian tube carcinoma, and primary peritoneal carcinoma. Full study eligibility criteria are provided in Supplementary Table S1.
Dose escalation was conducted using a modified Fibonacci 3 + 3 method (Supplementary Fig. S1).[17] Patients were administered oral senaparib from a planned starting dose of 2 mg once daily (QD), with preliminary dose escalation to 120 mg via nine dose groups, in order of their entry into the study. At a given dose level, each patient received a single dose of senaparib followed by a 7-day washout period. They then entered a continuous dosing period to confirm the safety and PK profile, in which they received senaparib QD from day 1 to day 21 of each 3-week cycle. Progression to the next higher dose required approval from the Data Safety Monitoring Committee (DSMC) upon review of the safety and PK data of the previous dose. A 50-mg twice-daily (BID) dosing group was added (planned enrollment, n = 6 patients) based on a DSMC review of the safety, PK, and efficacy analysis of the completed QD dose groups in the phase I clinical trial of senaparib dose escalation in Australia (NCT03507543), which commenced prior to the start of this trial.
The dose-expansion period included 3 populations: dose groups in which at least one patient achieved complete response (CR) or partial response (PR) per RECIST v1.1[16] and 1 dose group higher (evaluated for safety), as well as the dose group at the maximum tolerated dose (MTD)/recommended phase II dose (RP2D). Each of these groups included those patients in the respective dose-escalation group plus a planned additional 10 patients (approximately 20 patients in the MTD/RP2D group) with BRCA^mut+ solid tumors (ovarian, breast, or prostate cancer were preferred, and ovarian cancer could be BRCA wild type). Patients received senaparib monotherapy orally QD or BID (50-mg dose only) over each 3-week cycle until disease progression or unacceptable toxicity.
DLTs were predefined toxicities (Supplementary Table S2) recorded over the 7 days following the single-dose administration of senaparib and during the first treatment cycle (day 1-day 21) for each dose group in the dose-escalation period only. The MTD was defined as the maximum dose at which ≤1/6 patients experienced a DLT. Senaparib PK parameters were derived from blood samples collected from patients after the single administration, and at regular intervals during the first cycle of the dose-escalation and dose-expansion periods. Plasma concentrations of senaparib were determined using high-performance liquid chromatography-tandem mass spectrometry. Tumor response was assessed every 6 weeks per RECIST v1.1,[16] recording objective response rate (ORR), disease control rate (DCR), duration of response (DOR), and progression-free survival (PFS) by dose level for all patients and for those harboring BRCA^mut+ tumors.

SMILES: O=C(c1cc(Cn2c(=O)[nH]c(=O)c3c(F)cccc32)ccc1F)N1CCN(c2ncccn2)CC1 [Senaparib]
- ALT increased TRAE, All (2 mg QD n = 1): 0 n (%)
- ALT increased TRAE, Gr≥3 (2 mg QD n = 1): 0 n (%)
- AST increased TRAE, All (2 mg QD n = 1): 0 n (%)
- AST increased TRAE, Gr≥3 (2 mg QD n = 1): 0 n (%)
- Anemia TRAE, All (2 mg QD n = 1): 0 n (%)
- Anemia TRAE, Gr≥3 (2 mg QD n = 1): 0 n (%)
- Any TEAE, All (2 mg QD n = 1): 1 (100) n (%)
- Any TEAE, Gr≥3 (2 mg QD n = 1): 1 (100) n (%)
- Any TEAE, events (2 mg QD n = 1): 9 n ev
- Any TEAE, patients (2 mg QD n = 1): 1 (100) n (%)
- Any TRAE, All (2 mg QD n = 1): 1 (100) n (%)
- Any TRAE, Gr≥3 (2 mg QD n = 1): 0 n (%)
- Appetite decreased TRAE, All (2 mg QD n = 1): 1 (100) n (%)
- Appetite decreased TRAE, Gr≥3 (2 mg QD n = 1): 0 n (%)
- Asthenia TRAE, All (2 mg QD n = 1): 0 n (%)
- Asthenia TRAE, Gr≥3 (2 mg QD n = 1): 0 n (%)
- Blood bilirubin increased TRAE, All (2 mg QD n = 1): 0 n (%)
- Blood bilirubin increased TRAE, Gr≥3 (2 mg QD n = 1): 0 n (%)
- Blood creatinine increased TRAE, All (2 mg QD n = 1): 0 n (%)
- Blood creatinine increased TRAE, Gr≥3 (2 mg QD n = 1): 0 n (%)
- Hypokalemia TRAE, All (2 mg QD n = 1): 1 (100) n (%)
- Hypokalemia TRAE, Gr≥3 (2 mg QD n = 1): 0 n (%)
- Nausea TRAE, All (2 mg QD n = 1): 0 n (%)
- Nausea TRAE, Gr≥3 (2 mg QD n = 1): 0 n (%)
- Neutrophil count decreased TRAE, All (2 mg QD n = 1): 0 n (%)
- Neutrophil count decreased TRAE, Gr≥3 (2 mg QD n = 1): 0 n (%)
- Platelet count decreased TRAE, All (2 mg QD n = 1): 0 n (%)
- Platelet count decreased TRAE, Gr≥3 (2 mg QD n = 1): 0 n (%)
- SAEs, events (2 mg QD n = 1): 1 n ev
- SAEs, patients (2 mg QD n = 1): 1 (100) n (%)
- TEAE Grade ≥3, events (2 mg QD n = 1): 1 n ev
- TEAE Grade ≥3, patients (2 mg QD n = 1): 1 (100) n (%)
- TEAEs leading to death, events (2 mg QD n = 1): 0 n ev
- TEAEs leading to death, patients (2 mg QD n = 1): 0 n (%)
- TEAEs leading to dose discontinuation, events (2 mg QD n = 1): 0 n ev
- TEAEs leading to dose discontinuation, patients (2 mg QD n = 1): 0 n (%)
- TEAEs leading to dose interruption, events (2 mg QD n = 1): 0 n ev
- TEAEs leading to dose interruption, patients (2 mg QD n = 1): 0 n (%)
- TEAEs leading to dose reduction, events (2 mg QD n = 1): 0 n ev
- TEAEs leading to dose reduction, patients (2 mg QD n = 1): 0 n (%)
- TRAEs Grade ≥3, events (2 mg QD n = 1): 0 n ev
- TRAEs Grade ≥3, patients (2 mg QD n = 1): 0 n (%)
- TRAEs, events (2 mg QD n = 1): 6 n ev
- TRAEs, patients (2 mg QD n = 1): 1 (100) n (%)
- Vomiting TRAE, All (2 mg QD n = 1): 0 n (%)
- Vomiting TRAE, Gr≥3 (2 mg QD n = 1): 0 n (%)
- WBC decreased TRAE, All (2 mg QD n = 1): 0 n (%)
- WBC decreased TRAE, Gr≥3 (2 mg QD n = 1): 0 n (%)
- ALT increased TRAE, All (5 mg QD n = 3): 0 n (%)
- ALT increased TRAE, Gr≥3 (5 mg QD n = 3): 0 n (%)
- AST increased TRAE, All (5 mg QD n = 3): 0 n (%)
- AST increased TRAE, Gr≥3 (5 mg QD n = 3): 0 n (%)
- Anemia TRAE, All (5 mg QD n = 3): 2 (66.7) n (%)
- Anemia TRAE, Gr≥3 (5 mg QD n = 3): 1 (33.3) n (%)
- Any TEAE, All (5 mg QD n = 3): 3 (100) n (%)
- Any TEAE, Gr≥3 (5 mg QD n = 3): 3 (100) n (%)
- Any TEAE, events (5 mg QD n = 3): 28 n ev
- Any TEAE, patients (5 mg QD n = 3): 3 (100) n (%)
- Any TRAE, All (5 mg QD n = 3): 3 (100) n (%)
- Any TRAE, Gr≥3 (5 mg QD n = 3): 1 (33.3) n (%)
- Appetite decreased TRAE, All (5 mg QD n = 3): 1 (33.3) n (%)
- Appetite decreased TRAE, Gr≥3 (5 mg QD n = 3): 0 n (%)
- Asthenia TRAE, All (5 mg QD n = 3): 1 (33.3) n (%)
- Asthenia TRAE, Gr≥3 (5 mg QD n = 3): 0 n (%)
- Blood bilirubin increased TRAE, All (5 mg QD n = 3): 1 (33.3) n (%)
- Blood bilirubin increased TRAE, Gr≥3 (5 mg QD n = 3): 0 n (%)
- Blood creatinine increased TRAE, All (5 mg QD n = 3): 0 n (%)
- Blood creatinine increased TRAE, Gr≥3 (5 mg QD n = 3): 0 n (%)
- Hypokalemia TRAE, All (5 mg QD n = 3): 0 n (%)
- Hypokalemia TRAE, Gr≥3 (5 mg QD n = 3): 0 n (%)
- Nausea TRAE, All (5 mg QD n = 3): 1 (33.3) n (%)
- Nausea TRAE, Gr≥3 (5 mg QD n = 3): 0 n (%)
- Neutrophil count decreased TRAE, All (5 mg QD n = 3): 1 (33.3) n (%)
- Neutrophil count decreased TRAE, Gr≥3 (5 mg QD n = 3): 0 n (%)
- Platelet count decreased TRAE, All (5 mg QD n = 3): 1 (33.3) n (%)
- Platelet count decreased TRAE, Gr≥3 (5 mg QD n = 3): 0 n (%)
- SAEs, events (5 mg QD n = 3): 0 n ev
- SAEs, patients (5 mg QD n = 3): 0 n (%)
- TEAE Grade ≥3, events (5 mg QD n = 3): 5 n ev
- TEAE Grade ≥3, patients (5 mg QD n = 3): 3 (100) n (%)
- TEAEs leading to death, events (5 mg QD n = 3): 0 n ev
- TEAEs leading to death, patients (5 mg QD n = 3): 0 n (%)
- TEAEs leading to dose discontinuation, events (5 mg QD n = 3): 0 n ev
- TEAEs leading to dose discontinuation, patients (5 mg QD n = 3): 0 n (%)
- TEAEs leading to dose interruption, events (5 mg QD n = 3): 0 n ev
- TEAEs leading to dose interruption, patients (5 mg QD n = 3): 0 n (%)
- TEAEs leading to dose reduction, events (5 mg QD n = 3): 0 n ev
- TEAEs leading to dose reduction, patients (5 mg QD n = 3): 0 n (%)
- TRAEs Grade ≥3, events (5 mg QD n = 3): 1 n ev
- TRAEs Grade ≥3, patients (5 mg QD n = 3): 1 (33.3) n (%)
- TRAEs, events (5 mg QD n = 3): 13 n ev
- TRAEs, patients (5 mg QD n = 3): 3 (100) n (%)
- Vomiting TRAE, All (5 mg QD n = 3): 0 n (%)
- Vomiting TRAE, Gr≥3 (5 mg QD n = 3): 0 n (%)
- WBC decreased TRAE, All (5 mg QD n = 3): 1 (33.3) n (%)
- WBC decreased TRAE, Gr≥3 (5 mg QD n = 3): 0 n (%)
- ALT increased TRAE, All (10 mg QD n = 3): 1 (33.3) n (%)
- ALT increased TRAE, Gr≥3 (10 mg QD n = 3): 0 n (%)
- AST increased TRAE, All (10 mg QD n = 3): 1 (33.3) n (%)
- AST increased TRAE, Gr≥3 (10 mg QD n = 3): 0 n (%)
- Anemia TRAE, All (10 mg QD n = 3): 1 (33.3) n (%)
- Anemia TRAE, Gr≥3 (10 mg QD n = 3): 0 n (%)
- Any TEAE, All (10 mg QD n = 3): 3 (100) n (%)
- Any TEAE, Gr≥3 (10 mg QD n = 3): 0 n (%)
- Any TEAE, events (10 mg QD n = 3): 10 n ev
- Any TEAE, patients (10 mg QD n = 3): 3 (100) n (%)
- Any TRAE, All (10 mg QD n = 3): 3 (100) n (%)
- Any TRAE, Gr≥3 (10 mg QD n = 3): 0 n (%)
- Appetite decreased TRAE, All (10 mg QD n = 3): 1 (33.3) n (%)
- Appetite decreased TRAE, Gr≥3 (10 mg QD n = 3): 0 n (%)
- Asthenia TRAE, All (10 mg QD n = 3): 0 n (%)
- Asthenia TRAE, Gr≥3 (10 mg QD n = 3): 0 n (%)
- Blood bilirubin increased TRAE, All (10 mg QD n = 3): 0 n (%)
- Blood bilirubin increased TRAE, Gr≥3 (10 mg QD n = 3): 0 n (%)
- Blood creatinine increased TRAE, All (10 mg QD n = 3): 0 n (%)
